Measurements taken from publication PMC9513850, “Receptor-binding domain-anchored peptides block binding of severe acute respiratory syndrome coronavirus 2 spike proteins with cell surface angiotensin-converting enzyme 2” (Frontiers in Microbiology, 2022).
“Also recorded” adds a separate entry of the source.

Legend:
[1] = test system: recombinant SARS-CoV-2 S-trimer proteins; assay: Phage display (PhD-12) panning against S-trimer; assay type: binding; conditions: phage-displayed sequence, after panning against S-trimer
[2] = test system: S-trimer-ACE2 binding, recombinant ACE2 proteins; assay: Blocking of S-trimer binding onto recombinant ACE2 (ELISA); parameters: species or system SARS-CoV-2 (S-trimer); conditions: ACE2 coated 5 μg/ml, S-trimer 0.01 μM premixed with 0.5, 1.65 and 5 μM peptide (up to 500:1)
Description: Then, 293T-ACE2hR cells were substituted by recombinant ACE2 proteins and coated onto ELISA plates in the other measurement setting. In brief, recombinant ACE2 proteins (Novoprotein) were immobilized overnight at room temperature on ELISA plates at a 5 μg/ml concentration in 0.1 M NaHCO3, pH 9.6. The plates were then blocked with 10% fetal calf serum for 2 h and washed with tris-buffered saline solution containing 0.1% Tween-20 [[…] (PBST) buffer]. […] The following procedures were described above for the 293T-ACE2hR cells setting.
FIGURE 3 The potential blocking effect of peptides on the binding of S-trimer onto cellular or soluble angiotensin-converting enzyme 2 (ACE2). […] The peptide SBP1 was used as a positive and peptide SBP2 as the negative control. *p < 0.05, vs. vehicle, all by Student’s t-test.

[3] = test system: recombinant SARS-CoV-2 S-RBD; assay: Phage display (PhD-12) panning against S-RBD; assay type: binding; conditions: phage-displayed sequence, after panning against S-RBD
[4] = test system: S-trimer-ACE2 binding, 293T-ACE2hR cells; assay type: cell-based, SARS-CoV-2 (S-trimer); human (hACE2); conditions: for blocking of S-trimer binding onto 293T-ACE2hR cells, lower concentrations: 10 μM peptide and below, S-trimer 0.001 μM; for blocking of S-trimer binding onto 293T-ACE2hR cells, lower concentrations / blocking of S-trimer binding onto 293T-ACE2hR cells: premix 1 h, then 1 h on cells, room temperature, HRP anti-6X His tag, TMB, OD370 nm; for blocking of S-trimer binding onto 293T-ACE2hR cells: 50 μM peptide vs. 0.001 μM S-trimer (50,000-fold), p < 0.05 mark vs. vehicle, Student's t-test; for behaviour of C2 and C6 in the competition assay: Figure 3
[5] = test system: cell surface S-RBD proteins; parameters: method as in Zhang et al., 2020; conditions: ref Zhang et al., 2020; cited from earlier work
S-RBD proteins = test system: S-RBD proteins; parameters: method as in Zhang et al., 2020; conditions: bio-layer interferometry; ref Zhang et al., 2020; cited from earlier work
[6] = test system: ACE2 binding onto S-RBD proteins; parameters: method as in Zhang et al., 2020; conditions: ref Zhang et al., 2020; cited from earlier work

| Sequence | enrichment by S-trimer [1] | blocking of S-trimer binding onto recombinant ACE2 [2] | enrichment by S-RBD [3] | blocking of S-trimer binding onto 293T-ACE2hR cells, lower concentrations [4] | blocking of S-trimer binding onto 293T-ACE2hR cells [4] | behaviour of C2 and C6 in the competition assay [4] | association with cell surface S-RBD proteins [5] | association with S-RBD proteins (S-RBD proteins) | competition with ACE2 binding onto S-RBD [6] |
| --- | --- | --- | --- | --- | --- | --- | --- | --- | --- |
| DHAQRYGAGHSG [C2] | only C2 was present in S-trimer selected phages | neither for the settings of S-trimer binding onto recombinant ACE2 proteins; also recorded: Failure of 500-fold overdose of C2 or C6 peptides to block S-trimers binding with their receptors | enriched by S-RBD | not at lower concentrations (10 μM and below) | inhibited S-trimer binding onto 293T-ACE2hR cells at high concentrations (50 μM); also recorded: a blocking effect was observed for C2 and C6 | C2 and C6 behaved similarly in the competition assay |  |  |  |
| HWKAVNWLKPWT [C6] |  | neither for the settings of S-trimer binding onto recombinant ACE2 proteins; also recorded: Failure of 500-fold overdose of C2 or C6 peptides to block S-trimers binding with their receptors | enriched by S-RBD | not at lower concentrations (10 μM and below) | inhibited S-trimer binding onto 293T-ACE2hR cells at high concentrations (50 μM); also recorded: a blocking effect was observed for C2 and C6 | C2 and C6 behaved similarly in the competition assay |  |  |  |
| IEEQAKTFLDKFNHEAEDLFYQSK [SBP1] |  |  |  |  | still not for SBP1 or SBP2 peptides |  | neither associated with cell surface S-RBD proteins | at the level of micromolar scales | nor did they outcompete ACE2 binding onto S-RBD proteins |
| TFLDKFNHEAED [SBP2, reference compound] |  |  |  |  | still not for SBP1 or SBP2 peptides |  |  |  |  |
